# Measurements from US12673019B2, “Skin care composition” (Conopco, Inc., priority 2021, dated 2026).
# System: interleukin (IL)-6
# Test: Human immune cell line THP-1 in vitro assay: IL-6 in supernatant of LPS-treated differentiated THP1-XBlue cells (ELISA)
# Assay type: cell-based
# Conditions: differentiated THP1-XBlue cells co-treated with E. coli LPS and composition, 24 hours; percentage to LPS-treated cells = 100%; three repeats
# Method: Human Immune Cell Line THP-1 In Vitro Assay The following procedure was used to determine the anti-inflammation efficacy: THP1-XBlue™ (Cat No. thpx-sp, InvivoGen, San Diego, CA) cells were cultured as suspension in RPMI 1640 medium supplemented with 10% fetal bovine serum (FBS), penicillin (10 U/mL)-streptomycin (10 μg/mL) (Cat No. 15140122, Invitrogen, Carlsbad, CA). Cells were differentiated in 24-well plates at the density of 5×10^5 cells/well with 100 nM phorbol-12-myristate-13-acetate for 72 hours. Cells were then co-treated with pure E. coli lipopolysaccharides (LPS, Cat No. L2630, Sigma-Aldrich) and various compositions in Table 1. […] Expression of IL-6 was calculated as the percentage to LPS-treated cells which was designated as 100%. P value was analysed by Student's t-test comparing combination groups and individual compound groups (expression of IL-6, three repeats for each group).
smiles,measurement,value
"CCCCCCC(O)CCCCCCCCCCC(=O)O (stereo not shown) [B, 12-hydroxystearic acid]",Expression of IL-6 (%),84.4%
